From publication PMC10010643 (Cancer Chemotherapy and Pharmacology, 2023)
Values joined by “and” are separate entries in the source; they are usually repeats but may differ in a detail not shown here. Equal values may be shown once. “Also recorded” adds a separate entry of the source.

Experiment: Safety and tolerability, Part A single ascending-dose phase in healthy participants
Type: in vivo, human
Procedure: A further two cohorts were recruited. […] Each individual participated in one treatment period only, with the exception of the food-effect cohort (cohort A3) in which there were two treatment periods separated by at least 7 days washout. Participants resided at the Clinical Research Unit (CRU) from 1 day ahead of dosing (day − 1) to day 3 and returned for a follow-up visit 5–7 days after their final dose. For all cohorts, doses were administered in the fasted state in the morning of day 1 of Treatment Period 1. In the food-effect cohort, doses were given 30 min after the start of a high-fat breakfast (973 calories total: approximately 150 protein calories, 250 carbohydrate calories, and 500–600 fat calories) on day 1 of Treatment Period 2. For cohorts A1 to A5 in Treatment Period 1, dosing occurred such that one pair (one active and one placebo) were dosed at least 24 h before the remaining participants. Continuation to dose those who remained was at the investigator’s discretion. Escalating doses were administered following satisfactory sponsor and investigator review of the safety and tolerability data (up to 48 h post-final dose) and PK data (up to 24 h post-final dose) from the lower dose levels.
Safety and tolerability assessments included adverse event (AE) monitoring, physical examinations, laboratory assessments (hematology, clinical chemistry, and urinalysis), vital signs (blood pressure, pulse rate, and body temperature) and ECG.
No formal statistical assessment was performed for the safety analysis.

[1] = single dose 20 mg (4 × 5 mg), fasted
[2] = single dose 50 mg (1 × 50 mg), fasted
[3] = single dose 50 mg (1 × 50 mg), fed
[4] = single dose 50 mg (10 × 5 mg), fasted
[5] = single dose 100 mg (2 × 50 mg), fasted
[6] = single dose 200 mg (4 × 50 mg), fasted
[7] = single dose 400 mg (8 × 50 mg), fasted
[8] = treatment-emergent period, Parts A and B

OC[C@H]1O[C@H](Sc2cncc(Br)c2)[C@H](O)[C@@H](n2cc(-c3cc(F)c(F)c(F)c3)nn2)[C@H]1O [GB1211]
Severity (possibly related to study treatment): Moderate [1]: 0 n (%)
Severity (possibly related to study treatment): Severe [1]: 0 n (%)
Severity (possibly related to study treatment): Total [1]: 0 n (%)
Number of TEAEs [2]: 1
Participants discontinued due to TEAEs [2]: 0 n (%)
Participants with SAEs [2]: 0 n (%)
Participants with TEAEs [2]: 1 (16.7) n (%) and 1 (16.7%) n (%)
Severity (all TEAEs): Mild [2]: 1 (16.7) n (%)
Severity (all TEAEs): Moderate [2]: 0 n (%)
Severity (all TEAEs): Severe [2]: 0 n (%)
Severity (all TEAEs): Total [2]: 1 (16.7) n (%)
Severity (possibly related to study treatment): Mild [2]: 0 n (%)
Severity (possibly related to study treatment): Moderate [2]: 0 n (%)
Severity (possibly related to study treatment): Severe [2]: 0 n (%)
Severity (possibly related to study treatment): Total [2]: 0 n (%)
Number of TEAEs [3]: 1
Participants discontinued due to TEAEs [3]: 0 n (%)
Participants with SAEs [3]: 0 n (%)
Participants with TEAEs [3]: 1 (16.7) n (%) and 1 (16.7%) n (%)
Severity (all TEAEs): Mild [3]: 0 n (%)
Severity (all TEAEs): Moderate [3]: 1 n (%) and 1 (16.7) n (%)
Severity (all TEAEs): Severe [3]: 0 n (%)
Severity (all TEAEs): Total [3]: 1 (16.7) n (%)
Severity (possibly related to study treatment): Mild [3]: 0 n (%)
Severity (possibly related to study treatment): Moderate [3]: 0 n (%)
Severity (possibly related to study treatment): Severe [3]: 0 n (%)
Severity (possibly related to study treatment): Total [3]: 0 n (%)
Number of TEAEs [4]: 1
Participants discontinued due to TEAEs [4]: 0 n (%)
Participants with SAEs [4]: 0 n (%)
Participants with TEAEs [4]: 1 (16.7) n (%) and 1 (16.7%) n (%)
Severity (all TEAEs): Mild [4]: 1 (16.7) n (%)
Severity (all TEAEs): Moderate [4]: 0 n (%)
Severity (all TEAEs): Severe [4]: 0 n (%)
Severity (all TEAEs): Total [4]: 1 (16.7) n (%)
Severity (possibly related to study treatment): Mild [4]: 0 n (%)
Severity (possibly related to study treatment): Moderate [4]: 0 n (%)
Severity (possibly related to study treatment): Severe [4]: 0 n (%)
Severity (possibly related to study treatment): Total [4]: 0 n (%)
Number of TEAEs [5]: 2
Participants discontinued due to TEAEs [5]: 0 n (%)
Participants with SAEs [5]: 0 n (%)
Participants with TEAEs [5]: 1 (16.7) n (%) and 1 (16.7%) n (%)
Severity (all TEAEs): Mild [5]: 1 (16.7) n (%)
Severity (all TEAEs): Moderate [5]: 0 n (%)
Severity (all TEAEs): Severe [5]: 0 n (%)
Severity (all TEAEs): Total [5]: 1 (16.7) n (%)
Severity (possibly related to study treatment): Mild [5]: 1 (16.7) n (%)
Severity (possibly related to study treatment): Moderate [5]: 0 n (%)
Severity (possibly related to study treatment): Severe [5]: 0 n (%)
Severity (possibly related to study treatment): Total [5]: 1 (16.7) n (%)
Number of TEAEs [6]: 0
Participants discontinued due to TEAEs [6]: 0 n (%)
Participants with SAEs [6]: 0 n (%)
Participants with TEAEs [6]: 0 n (%)
Severity (all TEAEs): Mild [6]: 0 n (%)
Severity (all TEAEs): Moderate [6]: 0 n (%)
Severity (all TEAEs): Severe [6]: 0 n (%)
Severity (all TEAEs): Total [6]: 0 n (%)
Severity (possibly related to study treatment): Mild [6]: 0 n (%)
Severity (possibly related to study treatment): Moderate [6]: 0 n (%)
Severity (possibly related to study treatment): Severe [6]: 0 n (%)
Severity (possibly related to study treatment): Total [6]: 0 n (%)
Number of TEAEs [7]: 1
Participants discontinued due to TEAEs [7]: 0 n (%)
Participants with SAEs [7]: 0 n (%)
Participants with TEAEs [7]: 1 (16.7) n (%) and 1 (16.7%) n (%)
Severity (all TEAEs): Mild [7]: 1 (16.7) n (%)
Severity (all TEAEs): Moderate [7]: 0 n (%)
Severity (all TEAEs): Severe [7]: 0 n (%)
Severity (all TEAEs): Total [7]: 1 (16.7) n (%)
Severity (possibly related to study treatment): Mild [7]: 1 (16.7) n (%)
Severity (possibly related to study treatment): Moderate [7]: 0 n (%)
Severity (possibly related to study treatment): Severe [7]: 0 n (%)
Severity (possibly related to study treatment): Total [7]: 1 (16.7) n (%)
Clinical laboratory evaluation, vital signs, ECG or physical examination (single or multiple GB1211 doses): no treatment- or dose-related trend; also recorded: no clinically significant finding
Serious AEs or severe AEs [8]: no severe TEAEs or serious AEs reported
Study discontinuations due to AEs [8]: no study discontinuations due to AEs
